One data set deals with T1, thymidylate synthetase (Mus musculus, UniProt P07607).
T1 construct: obtained in partially purified form from L1210 mouse leukaemia cells; endogenous in cells; host or cells: L1210 mouse leukaemia cells (enzyme partially purified)
The data set can be described thus: Test (a): in vitro inhibition of thymidylate synthetase (partially purified from L1210 mouse leukaemia cells). The note with it: enzyme partially purified from L1210 mouse leukaemia cells; read-out: IC50 against thymidylate synthetase [Test (a)]. Format: biochemical. An excerpt: (a) An in vitro assay which determines the ability of a test compound to inhibit the enzyme thymidylate synthetase. Thymidylate synthetase may be obtained in partially purified form from L1210 mouse leukaemia cells and utilised using the procedures described by Jackman et al. (Cancer Res., 1986, 46, 2810);

A further data set concerns L1210 cell line. Briefly: Test (b): inhibition of growth of the leukaemia cell line L1210 in cell culture. The note with it: Mus musculus, read-out: IC50 against the L1210 cell line [Test (b)]. Format: cell-based. An excerpt:
Compounds of the CB3717 type are believed to act as anti-tumour agents by inhibiting the enzyme thymidylate synthetase. The anti-tumour activity of CB3717 may be assessed in vitro by determining its inhibitory effect on that enzyme, and in cell cultures by its inhibitory effect on cancer cell lines such as the mouse leukaemia cell lines L1210 and L5178Y TK-/- and the breast cancer cell line MCF-7.
(b) An assay which determines the ability of a test compound to inhibit the growth of the leukaemia cell line L1210 in cell culture. The test is similar to that described in UK Patent Specification No. 2065653B;

The subject of the next data set is liver and kidney. The following applies: clinical; literature references; cited from earlier work.
Data set [1] relates to human breast, ovarian and liver cancer. The following applies: clinical; literature references; cited from earlier work.

Molecules are shown by their SMILES.

T1 sequence (P07607 whole entry): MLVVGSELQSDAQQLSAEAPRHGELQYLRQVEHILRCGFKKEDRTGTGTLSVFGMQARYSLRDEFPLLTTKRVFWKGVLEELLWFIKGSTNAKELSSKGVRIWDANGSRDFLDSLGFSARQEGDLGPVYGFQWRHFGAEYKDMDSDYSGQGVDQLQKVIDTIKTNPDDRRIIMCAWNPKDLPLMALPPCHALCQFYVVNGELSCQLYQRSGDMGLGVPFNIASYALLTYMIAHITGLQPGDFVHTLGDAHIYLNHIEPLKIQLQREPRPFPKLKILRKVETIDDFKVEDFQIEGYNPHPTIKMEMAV

A word on the IC50: it is the midpoint of a concentration-inhibition curve. As for `C#CCN(Cc1ccc2nc(C)nc(O)c2c1)c1ccc(C(=O)NCCC)cc1` [p-[N-(3,4-dihydro-2-methyl-4-oxoquinazolin-6-ylmethyl)-N-(prop-2-ynyl)amino]-N-propylbenzamide], the IC50 on thymidylate synthetase worked out at 1.8 µM; in the data set with L1210 cell line, 7 µM.
In the case of `C#CCN(Cc1ccc2nc(N)[nH]c(=O)c2c1)c1ccc(C(=O)N[C@@H](CCC(=O)O)C(=O)O)cc1` [CB3717], the toxicity in humans entry with liver and kidney is “symptoms of toxicity in humans, particularly in relation to the liver and kidney”. In data set [1], the “activity against human breast, ovarian and liver cancer” value is “promising activity against human breast, ovarian and liver cancer”.
